According to the NIST ThermoML archive (doi:10.1016/j.jct.2014.12.022):
± gives the expanded uncertainty stated by the source.

Test: molar heat capacity at constant pressure; xn = mol fraction of the nth substance listed
Details: 100 kPa, Liquid, Small sample (50 mg) DSC

Cc1ccc(Cl)cc1 [4-chlorotoluene] + c1ccccc1
molar heat capacity at constant pressure [J/K/mol]
Details | 293.15 K | 298.15 K | 303.15 K
x2 = 0.0912 | 170.37 ± 3.4 | 172.42 ± 3.5 | 174.55 ± 3.5
x2 = 0.1226 | 168.6 ± 3.4 | 170.58 ± 3.4 | 172.63 ± 3.5
x2 = 0.1657 | 166.22 ± 3.3 | 168.12 ± 3.4 | 170.06 ± 3.4
x2 = 0.2012 | 164.3 ± 3.3 | 166.15 ± 3.3 | 168.01 ± 3.4
x2 = 0.2374 | 162.4 ± 3.2 | 164.19 ± 3.3 | 165.99 ± 3.3
x2 = 0.2675 | 160.86 ± 3.2 | 162.61 ± 3.2 | 164.35 ± 3.3
x2 = 0.3135 | 158.57 ± 3.2 | 160.26 ± 3.2 | 161.93 ± 3.2
x2 = 0.3456 | 157.02 ± 3.1 | 158.69 ± 3.2 | 160.3 ± 3.2
x2 = 0.3702 | 155.87 ± 3.1 | 157.51 ± 3.1 | 159.08 ± 3.2
x2 = 0.4231 | 153.47 ± 3.1 | 155.06 ± 3.1 | 156.56 ± 3.1
x2 = 0.4657 | 151.63 ± 3 | 153.19 ± 3.1 | 154.63 ± 3.1
x2 = 0.5093 | 149.83 ± 3 | 151.35 ± 3 | 152.74 ± 3
x2 = 0.5346 | 148.82 ± 3 | 150.33 ± 3 | 151.68 ± 3
x2 = 0.5723 | 147.36 ± 3 | 148.85 ± 3 | 150.16 ± 3
x2 = 0.6022 | 146.25 ± 2.9 | 147.72 ± 3 | 148.99 ± 3
x2 = 0.6357 | 145.04 ± 2.9 | 146.49 ± 2.9 | 147.73 ± 3
x2 = 0.6701 | 143.84 ± 2.9 | 145.27 ± 2.9 | 146.49 ± 2.9
x2 = 0.6989 | 142.86 ± 2.9 | 144.29 ± 2.9 | 145.48 ± 2.9
x2 = 0.7224 | 142.08 ± 2.8 | 143.51 ± 2.9 | 144.68 ± 2.9
x2 = 0.7564 | 140.98 ± 2.8 | 142.41 ± 2.9 | 143.56 ± 2.9
x2 = 0.8096 | 139.31 ± 2.8 | 140.75 ± 2.8 | 141.89 ± 2.8
x2 = 0.8213 | 138.95 ± 2.8 | 140.4 ± 2.8 | 141.54 ± 2.8
x2 = 0.8543 | 137.95 ± 2.8 | 139.41 ± 2.8 | 140.56 ± 2.8
x2 = 0.8886 | 136.92 ± 2.7 | 138.42 ± 2.8 | 139.57 ± 2.8

CN1CCCC1=O [N-methylpyrrolidone] + c1ccccc1
molar heat capacity at constant pressure [J/K/mol]
Details | 293.15 K | 298.15 K | 303.15 K
x1 = 0.0787 | 137.73 ± 2.8 | 139.51 ± 2.8 | 140.9 ± 2.8
x1 = 0.1156 | 139.63 ± 2.8 | 141.42 ± 2.8 | 142.83 ± 2.9
x1 = 0.168 | 142.27 ± 2.9 | 144.04 ± 2.9 | 145.46 ± 2.9
x1 = 0.1983 | 143.75 ± 2.9 | 145.51 ± 2.9 | 146.92 ± 2.9
x1 = 0.2249 | 145.03 ± 2.9 | 146.77 ± 2.9 | 148.18 ± 3
x1 = 0.2634 | 146.83 ± 2.9 | 148.55 ± 3 | 149.94 ± 3
x1 = 0.3065 | 148.78 ± 3 | 150.46 ± 3 | 151.83 ± 3
x1 = 0.3325 | 149.91 ± 3 | 151.58 ± 3 | 152.93 ± 3.1
x1 = 0.3617 | 151.15 ± 3 | 152.8 ± 3.1 | 154.13 ± 3.1
x1 = 0.4106 | 153.13 ± 3.1 | 154.74 ± 3.1 | 156.04 ± 3.1
x1 = 0.4367 | 154.13 ± 3.1 | 155.73 ± 3.1 | 157.02 ± 3.1
x1 = 0.4635 | 155.13 ± 3.1 | 156.71 ± 3.1 | 157.98 ± 3.2
x1 = 0.5008 | 156.45 ± 3.1 | 158.01 ± 3.2 | 159.26 ± 3.2
x1 = 0.5598 | 158.37 ± 3.2 | 159.91 ± 3.2 | 161.13 ± 3.2
x1 = 0.5952 | 159.42 ± 3.2 | 160.95 ± 3.2 | 162.15 ± 3.2
x1 = 0.6245 | 160.24 ± 3.2 | 161.75 ± 3.2 | 162.94 ± 3.3
x1 = 0.6616 | 161.18 ± 3.2 | 162.69 ± 3.2 | 163.85 ± 3.3
x1 = 0.7099 | 162.28 ± 3.2 | 163.76 ± 3.3 | 164.9 ± 3.3
x1 = 0.7494 | 163.06 ± 3.3 | 164.51 ± 3.3 | 165.62 ± 3.3
x1 = 0.7748 | 163.51 ± 3.3 | 164.93 ± 3.3 | 166.02 ± 3.3
x1 = 0.8011 | 163.92 ± 3.3 | 165.31 ± 3.3 | 166.38 ± 3.3
x1 = 0.8319 | 164.35 ± 3.3 | 165.68 ± 3.3 | 166.72 ± 3.3
x1 = 0.8767 | 164.84 ± 3.3 | 166.08 ± 3.3 | 167.06 ± 3.3
x1 = 0.9152 | 165.15 ± 3.3 | 166.28 ± 3.3 | 167.2 ± 3.3

Cc1cccc(Cl)c1 [3-chlorotoluene] + c1ccccc1
molar heat capacity at constant pressure [J/K/mol]
Details | 293.15 K | 298.15 K | 303.15 K
x2 = 0.1056 | 169.49 ± 3.4 | 170.68 ± 3.4 | 171.79 ± 3.4
x2 = 0.1477 | 167.26 ± 3.4 | 168.43 ± 3.4 | 169.51 ± 3.4
x2 = 0.1746 | 165.85 ± 3.3 | 167.02 ± 3.3 | 168.08 ± 3.4
x2 = 0.2065 | 164.21 ± 3.3 | 165.37 ± 3.3 | 166.4 ± 3.3
x2 = 0.2347 | 162.78 ± 3.3 | 163.93 ± 3.3 | 164.95 ± 3.3
x2 = 0.2856 | 160.26 ± 3.2 | 161.4 ± 3.2 | 162.4 ± 3.2
x2 = 0.3148 | 158.85 ± 3.2 | 160 ± 3.2 | 160.98 ± 3.2
x2 = 0.3452 | 157.42 ± 3.1 | 158.56 ± 3.2 | 159.53 ± 3.2
x2 = 0.3899 | 155.37 ± 3.1 | 156.52 ± 3.1 | 157.48 ± 3.1
x2 = 0.4132 | 154.33 ± 3.1 | 155.48 ± 3.1 | 156.44 ± 3.1
x2 = 0.4499 | 152.73 ± 3 | 153.89 ± 3.1 | 154.85 ± 3.1
x2 = 0.4967 | 150.76 ± 3 | 151.94 ± 3 | 152.9 ± 3.1
x2 = 0.5231 | 149.69 ± 3 | 150.88 ± 3 | 151.84 ± 3
x2 = 0.5505 | 148.6 ± 3 | 149.81 ± 3 | 150.77 ± 3
x2 = 0.5836 | 147.32 ± 3 | 148.55 ± 3 | 149.52 ± 3
x2 = 0.6335 | 145.46 ± 2.9 | 146.73 ± 2.9 | 147.72 ± 3
x2 = 0.6625 | 144.42 ± 2.9 | 145.71 ± 2.9 | 146.71 ± 2.9
x2 = 0.6988 | 143.15 ± 2.9 | 144.47 ± 2.9 | 145.5 ± 2.9
x2 = 0.7207 | 142.41 ± 2.9 | 143.74 ± 2.9 | 144.78 ± 2.9
x2 = 0.7756 | 140.58 ± 2.8 | 141.98 ± 2.8 | 143.06 ± 2.9
x2 = 0.8045 | 139.65 ± 2.8 | 141.08 ± 2.8 | 142.18 ± 2.8
x2 = 0.8466 | 138.32 ± 2.8 | 139.8 ± 2.8 | 140.94 ± 2.8
x2 = 0.8845 | 137.14 ± 2.7 | 138.67 ± 2.8 | 139.84 ± 2.8
x2 = 0.9197 | 136.05 ± 2.7 | 137.63 ± 2.8 | 138.84 ± 2.8
